Source: US20250236627A1, “CERTAIN OCTAHYDROFURO[3,4- B]PYRAZINES AS GLP-1 RECEPTOR MODULATORS” (ASTRAZENECA AB, priority 2021, published 2025)

Legend:
[1] = molecular target: T1, human GLP-1R receptor (Homo sapiens, UniProt P43220, L260F); assay: CHOK1 GLP-1R cAMP Assay; assay type: cell-based; conditions: CHO-K1 cell line stably expressing human GLP-1R; HTRF cAMP detection
T1 construct: expressed in transfected cells; host or cells: CHO-K1 (ATCC CCL-61)
Experimental: A cell line stably expressing the human GLP-1R receptor (NM_002062.5, including the naturally-occurring variant Leu260Phe) in a CHO-K1 (ATCC® CCL-61™) was used for assay.
GLP-1 Receptor mediated agonist activity was determined in a cell based assay measuring cAMP levels in cells using Homogeneous Time-Resolved Fluorescence (HTRF) cAMP detection kit (CisBio catalog #62AM4PEC, cAMP Gs Dynamic range kit). The cAMP detection method is based on a competitive immunoassay, in which cAMP produced by the cells and cAMP labeled with the dye d2 compete for binding to a Europium-Cryptate-labeled anti-cAMP antibody. The specific HTRF signal is inversely proportional to the concentration of cAMP.
Compounds were added to individual well in 384 well-assay plates (Greiner #784076) using an Echo (LabCyte) dispenser from 10 mM stocks. Varying concentration of compounds were added to wells, and dimethyl sulfoxide was used to normalize each well to a volume of 100 nanoliter. A dose response curve of GLP1(7-36)NH2 (Bachem H-6795) was included in each run. 5 μL of cAMP concentration response standards are applied in specified wells in the assay plates.
Cryo-preserved cells are thawed and resuspended in assay buffer pre-heated to 37° C. (20 mM 2-[4-(2-hydroxyethyl)piperazin-1-yl]ethanesulfonic acid (HEPES) pH 7.4, lx Hank's Balanced Salt Solution (HBSS, Life Technologies #14065) supplemented with 0.1% (w/v) bovine serum albumin (Sigma, A-7030)). Cells were centrifuged at 250*g for 5 min at room temperature, and resuspend in room tempered assay buffer to a final density of 0.16*10^6 cell/mL, to deliver 800 cells/well. 5 μL of assay buffer with 1 mM 3-isobutyl-1-methylxanthin (IBMX; Sigma cat I-7018) was dispensed per well in assay plates using a multidrop combi (Thermo Scientific) subsequently 5 μL of cell suspension was distributed to relevant wells in the assay using a multidrop dispenser. Assay plates were incubated 20 min at room temperature.
Detection reagents, Europium-Cryptate-labeled anti-cAMP antibody and cAMP labeled with the dye d2, are diluted in lysis buffer, provided by the manufacturer. 5 μL of each detection reagent is supplemented to each assay well using a multidrop dispenser. Assay plates are incubated in the dark for at least one hour. The HTRF signal is measured using the HTRF module (excitation: 337 nm, emission A: 665 nm and emission B: 620 nm) in Pherastar FSX (BMG Labtech).
Raw data were converted to pM cAMP using the cAMP standard curve included in each run. Converted data were further analyzed in Genedata Screener (Genedata) and EC50 determinations were made from agonist dose-response curves analyzed with a curve fitting program using a 4-parameter logistic dose response equation (Equation y=A+((B−A)/1+((C/x)^D))) where A is no stimulation, B is full stimulation, C is the EC50 and D is the Hill slope). The percent effect was determined relative to a saturating concentration of a full GLP-1R agonist (GLP1(7-36)NH2 has 100% effect in this assay setup).

[2] = molecular target: T2, endogenous human glucagon-like peptide 1 receptor (GLP-1R) (Homo sapiens, UniProt P43220); assay: EndoC cAMP Accumulation Assay; assay type: cell-based; conditions: EndoC-βH1 human pancreatic β cell line; HTRF cAMP assay
T2 construct: endogenous human glucagon-like peptide 1 receptor (GLP-1R) in a pancreatic insulinoma cell line; host or cells: EndoC-βH1 human pancreatic β cell line
Source text: EndoC cAMP Accumulation Assay
A HTRF (Homogeneous Time-Resolved Fluorescence) cAMP assay (cAMP Gs dynamic kit; CisoBio Cat #62AM4PEJ) was used to identify agonists of the endogenous human glucagon-like peptide 1 receptor (GLP-1R) in a pancreatic insulinoma cell line (EndoC-βH1). […] EndoC-βH1 cells have detectable GLP-1R mRNA as detected by qPCR^1. […] The EndoC-βH1 cell line is a valid model of human beta cells and applicable for screenings to identify novel drug target candidates (Mol. Metab., 2018, 8, 144-157). CisBio HTRF cAMP kits are based on a competitive immunoassay using cryptate-labelled anti-cAMP antibody and d2-labeled cAMP. The detection kit is intended for the direct quantitative determination of cAMP. The specific signal (i.e. energy transfer) is inversely proportional to the concentration of cAMP in the standard or sample. Test compounds (10 mM in DMSO) were diluted into assay buffer (HBSS (Sigma #H8264) supplemented with 25 mM HEPES (Gibco #15630, pH 7.4), 0.1% BSA (Sigma #A3059) and 0.5 mM IBMX (Sigma #I7018) included fresh on the day of the assay) into 96 well U-bottom plates (Greiner #650201). Diluted compounds were transferred to ECHO source PP plates (Labcyte #P-05525) and dose response curves were dispensed acoustically using ECHO 550 into black shallow-well u-bottom 384-well HTRF Assay Plates (Corning 4514).
Cryovials of EndoC-H1 (supplied at 1×10e^7 cells/vial) were used directly for screening. The cryovials and were removed from LN2 and thawed rapidly in a 37° C. water bath. The cells were resuspended in assay buffer and centrifuged at 300 g for 5 min. Cells were resuspended in assay buffer at the appropriate concentration, typically at 12e5 cells per mL (3000 cells per well, dependent on cell batch) and 2.5 μL diluted cells were added to all wells of destination plate by Multidrop combi reagent dispenser (Thermofisher). The plates were incubated at room temperature for 30 min. The assay was stopped by adding 2.5 μL anti-cAMP cryptate solution to all wells and 2.5 μL cAMP-d2 solution (both diluted 1:20 in lysis buffer) to columns 1-22 by Combi drop. A volume of 2.5 μL cAMP-d2 solution was added to wells E23 to P24 and 2.5 μL lysis buffer added to wells A23 to D24 by multichannel pipette. The plates were incubated at room temperature for 1 hr and read on an Envision plate reader using excitation wavelength of 320 nm and emission of 590 nm and 660 nm.
Raw data from Envision is converted to % DeltaF according to the manufacturer's instructions. Dose response curves are analysed via 4-Parameter Logistical Analysis and assay plate Z′ values obtained. Samples are graphed as percentage (%) activation plots compared to GIP (1-42, Bachem H-5645) with assay window defined by negative control as basal cell cAMP levels and positive control are defined by maximum GIP (82.5 nM) signal. GLP1 (7-36 amide, Bachem H-6795) dose response curve was included on all plates.

T2 sequence (P43220 24-463): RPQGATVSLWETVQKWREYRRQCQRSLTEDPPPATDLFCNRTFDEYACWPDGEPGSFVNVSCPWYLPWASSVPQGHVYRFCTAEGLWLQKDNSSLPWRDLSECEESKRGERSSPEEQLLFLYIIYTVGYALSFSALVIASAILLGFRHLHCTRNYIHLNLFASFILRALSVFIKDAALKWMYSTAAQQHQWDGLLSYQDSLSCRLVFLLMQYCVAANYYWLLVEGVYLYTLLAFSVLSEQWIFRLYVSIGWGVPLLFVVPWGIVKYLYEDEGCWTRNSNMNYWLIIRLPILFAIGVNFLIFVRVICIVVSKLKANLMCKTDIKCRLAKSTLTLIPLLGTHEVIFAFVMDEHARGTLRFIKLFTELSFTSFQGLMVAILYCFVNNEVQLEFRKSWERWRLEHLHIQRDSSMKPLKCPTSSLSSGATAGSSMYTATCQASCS
T1 sequence (P43220 24-463 L260F): as the sequence (P43220 24-463) above, with L237F counted along it

EC50 [1]	EC50 [2]	Compound
0.18 µM	1.3 µM	C[C@]1(c2ccc(Cl)cn2)Oc2cccc(N3CCN(Cc4nc5ccc(C(=O)O)cc5n4C[C@@H]4CCO4)[C@H]4COC[C@H]43)c2O1 (relative stereo) [Example 5a, 2-((4aR*,7aS*)-4-((R*)-2-(5-Chloropyridin-2-yl)-2-methylbenzo[d][1,3]dioxol-4-yl)hexahydrofuro[3,4-b]pyrazin-1(2H)-yl)methyl)-1-(((S)-oxetan-2-yl)methyl)-1H-benzo[d]imidazole-6-carboxylic acid]
0.73 µM	0.34 µM	C[C@@]1(c2ccc(Cl)cc2F)Oc2cccc(N3CCN(Cc4nc5c(F)cc(C(=O)O)cc5n4Cc4cccnc4)[C@@H]4COC[C@@H]43)c2O1 (relative stereo) [Example 13c, rel-2-(((4aR,7aS)-4-((R)-2-(4-Chloro-2-fluorophenyl)-2-methylbenzo[d][1,3]dioxol-4-yl)hexahydrofuro[3,4-b]pyrazin-1(2H)-yl)methyl)-4-fluoro-1-(pyridin-3-ylmethyl)-1H-benzo[d]imidazole-6-carboxylic acid]
0.0011 µM	0.0019 µM	C[C@@]1(c2ccc(Cl)cc2F)Oc2cccc(N3CCN(Cc4nc5c(Cl)cc(C(=O)O)cc5n4C[C@@H]4CCO4)[C@@H]4COC[C@@H]43)c2O1 (relative stereo) [Example 15a, 4-Chloro-2-(((4aR*,7aS*)-4-((R*)-2-(4-chloro-2-fluorophenyl)-2-methylbenzo[d][1,3]dioxol-4-yl)hexahydrofuro[3,4-b]pyrazin-1(2H)-yl)methyl)-1-(((S)-oxetan-2-yl)methyl)-1H-benzo[d]imidazole-6-carboxylic acid]
0.002 µM	0.0012 µM	COc1cc(C(=O)O)cc2c1nc(CN1CCN(c3cccc4c3OC(C)(c3ccc(Cl)cc3F)O4)[C@@H]3COC[C@@H]31)n2C[C@@H]1CCCO1 (relative stereo) [Example 28, 2-(((4aS,7aR)-4-((R*)-2-(4-Chloro-2-fluorophenyl)-2-methylbenzo[d][1,3]dioxol-4-yl)hexahydrofuro[3,4-b]pyrazin-1(2H)-yl)methyl)-4-methoxy-1-(((S)-tetrahydrofuran-2-yl)methyl)-1H-benzo[d]imidazole-6-carboxylic acid]
0.14 µM	0.21 µM	COc1cc(C(=O)O)cc2c1nc(CN1CCN(c3cccc4c3O[C@@](C)(c3ccc(Cl)cn3)O4)[C@@H]3COC[C@@H]31)n2C[C@@H]1CCO1 (single isomer, unassigned) [Example 1a, 2-(((4aR*,7aS*)-4-((R*)-2-(5-Chloropyridin-2-yl)-2-methylbenzo[d][1,3]dioxol-4-yl)hexahydrofuro[3,4-b]pyrazin-1(2H)-yl)methyl)-4-methoxy-1-(((S)-oxetan-2-yl)methyl)-1H-benzo[d]imidazole-6-carboxylic acid]
0.11 µM	0.086 µM	COc1cc(C(=O)O)cc2c1nc(CN1CCN(c3cccc4c3O[C@@](C)(c3ccc(Cl)cn3)O4)[C@@H]3COC[C@@H]31)n2C[C@@H]1CCCO1 (single isomer, unassigned) [Example 2b, 2-(((4aR*,7aS*)-4-((R*)-2-(5-Chloropyridin-2-yl)-2-methylbenzo[d][1,3]dioxol-4-yl)hexahydrofuro[3,4-b]pyrazin-1(2H)-yl)methyl)-4-methoxy-1-(((S)-tetrahydrofuran-2-yl)methyl)-1H-benzo[d]imidazole-6-carboxylic acid]
0.0012 µM	0.0017 µM	COc1cc(C(=O)O)cc2c1nc(CN1CCN(c3cccc4c3O[C@@](C)(c3ccc(Cl)cc3F)O4)[C@@H]3COC[C@@H]31)n2C[C@@H]1CCO1 (single isomer, unassigned) [Example 3a, 2-(((4aR*,7aS*)-4-((R*)-2-(4-Chloro-2-fluorophenyl)-2-methylbenzo[d][1,3]dioxol-4-yl)hexahydrofuro[3,4-b]pyrazin-1(2H)-yl)methyl)-4-methoxy-1-(((S)-oxetan-2-yl)methyl)-1H-benzo[d]imidazole-6-carboxylic acid]
0.061 µM	0.27 µM	COc1cc(C(=O)O)cc2c1nc(CN1CCN(c3cccc4c3O[C@@](C)(c3ccc(Cl)cc3F)O4)[C@@H]3COC[C@@H]31)n2C[C@@H]1CCO1 (single isomer, unassigned) [Example 3b, 2-(((4aR*,7aS*)-4-((R*)-2-(4-Chloro-2-fluorophenyl)-2-methylbenzo[d][1,3]dioxol-4-yl)hexahydrofuro[3,4-b]pyrazin-1(2H)-yl)methyl)-4-methoxy-1-(((S)-oxetan-2-yl)methyl)-1H-benzo[d]imidazole-6-carboxylic acid]
0.15 µM	0.13 µM	COc1cc(C(=O)O)cc2c1nc(CN1CCN(c3cccc4c3O[C@@](C)(c3ccc(Cl)cc3F)O4)[C@@H]3COC[C@@H]31)n2C[C@@H]1CCO1 (single isomer, unassigned) [Example 3c, 2-(((4aR*,7aS*)-4-((R*)-2-(4-Chloro-2-fluorophenyl)-2-methylbenzo[d][1,3]dioxol-4-yl)hexahydrofuro[3,4-b]pyrazin-1(2H)-yl)methyl)-4-methoxy-1-(((S)-oxetan-2-yl)methyl)-1H-benzo[d]imidazole-6-carboxylic acid]
0.38 µM		C[C@]1(c2ccc(Cl)cc2F)Oc2cccc(N3CCN(Cc4nc5ccc(C(=O)O)cc5n4CCn4cccn4)[C@H]4COC[C@H]43)c2O1 (single isomer, unassigned) [Example 7b]
